Laboratory results published in patent US6969730B2, “Amines as histamine-3 receptor ligands and their therapeutic applications” (Abbott Laboratories, priority 2001, dated 2005).
Structures can show the parent of a compound that is named as a salt.

What was measured:
[1] = molecular target: T1, histamine-3 receptors (H3 receptor) (Rattus norvegicus, UniProt Q9QYN8); assay: (3H)-N-α-methylhistamine binding to rat cortical membranes (histamine-3 receptor ligands); details: male Sprague-Dawley rat brain cortical membranes; (3H)-N-α-methylhistamine ~0.6 nM; 30 minutes at 25° C.; Cheng-Prusoff
T1 construct: from tissue; host or cells: male Sprague-Dawley rat brain cortex membranes
T1 sequence (Q9QYN8 whole entry): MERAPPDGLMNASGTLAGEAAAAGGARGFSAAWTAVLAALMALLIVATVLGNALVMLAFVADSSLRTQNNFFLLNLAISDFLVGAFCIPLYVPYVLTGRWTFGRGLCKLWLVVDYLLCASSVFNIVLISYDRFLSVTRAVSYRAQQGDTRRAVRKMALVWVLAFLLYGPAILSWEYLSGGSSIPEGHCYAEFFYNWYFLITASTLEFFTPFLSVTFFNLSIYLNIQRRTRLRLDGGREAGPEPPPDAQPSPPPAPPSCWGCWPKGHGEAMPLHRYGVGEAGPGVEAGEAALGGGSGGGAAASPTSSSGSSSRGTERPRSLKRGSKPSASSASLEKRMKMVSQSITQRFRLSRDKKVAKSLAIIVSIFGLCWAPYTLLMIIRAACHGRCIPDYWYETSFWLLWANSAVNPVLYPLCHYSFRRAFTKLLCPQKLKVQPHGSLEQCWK
Method: Briefly, male Sprague-Dawley rat brain cortices were homogenized (1 g tissue/10 mL buffer) in 50 mM Tris-HCl/5 mM EDTA containing protease inhibitor cocktail (Calbiochem) using a polytron set at 20,500 rpm. Homogenates were centrifuged for 20 minutes at 40,000×g. The supernatant was decanted, and pellets were weighed. The pellet was resuspended by polytron homogenization in 40 mL 50 mM Tris-HCl/5 mM EDTA with protease inhibitors and centrifuged for 20 minutes at 40,000×g. […] Rat cortical membranes (12 mg wet weight/tube) were incubated with (^3H)-N-α-methylhistamine (˜0.6 nM) with or without H3 receptor antagonists in a total incubation volume of 0.5 mL of 50 mM Tris-HCl/5 mM EDTA (pH 7.7). Test compounds were dissolved in DSMO to provide a 20 mM solution, serially diluted and then added to the incubation mixture prior to initiating the incubation assay by addition of the membranes. Thioperamide (3 μM) was used to determine nonspecific binding. Binding incubations were conducted for 30 minutes at 25° C. and terminated by addition of 2 mL of ice cold 50 mM Tris-HCl (pH 7.7) and filtration through 0.3% polyethylenimine-soaked Unifilter plates (Packard). These filters were washed 4 additional times with 2 mL of ice-cold 50 mM Tris-HCl and dried for 1 hour. Radioactivity was determined using liquid scintillation counting techniques. Results were analyzed by Hill transformation and Ki values were determined using the Cheng-Prusoff equation.

| Molecule | melting point [°C] | Ki [1] [nM] |
| --- | --- | --- |
| Cc1cc(-c2ccc3oc(CCN4CCC[C@H]4C)c(Br)c3c2)ccc1C#N [Example 155, 4-(3-bromo-2-{2-[(2R)-2-methyl-1-pyrrolidinyl]ethyl}-1-benzofuran-5-yl)-2-methylbenzonitrile] | – | 16 |
| C[C@@H]1CCCN1CCc1oc2ccc(-c3ccc(C#N)cc3)cc2c1Cl [Example 156A, 4-(3-chloro-2-{2-[(2R)-2-methyl-1-pyrrolidinyl]ethyl}-1-benzofuran-5-yl)benzonitrile] | – | 3.7 |
| C[C@@H]1CCCN1CCc1oc2cc(Cl)c(-c3ccc(C#N)cc3)cc2c1Cl [Example 156B, 4-(3,6-dichloro-2-{2-[(2R)-2-methyl-1-pyrrolidinyl]ethyl}-1-benzofuran-5-yl)benzonitrile] | – | 9.7 |
| C[C@@H]1CCCN1CCc1oc2ccc(-c3ccc(C#N)cc3)cc2c1I [Example 157, 4-(3-iodo-2-{2-[(2R)-2-methyl-1-pyrrolidinyl]ethyl}-1-benzofuran-5-yl)benzonitrile] | – | 8.4 |
| C[C@@H]1CCC(=O)N1CCc1cc2cc(-c3ccc(C#N)cc3)ccc2o1 [Example 158, 4-(2-{2-[(2R)-2-methyl-5-oxo-1-pyrrolidinyl]ethyl}-1-benzofuran-5-yl)benzonitrile] | – | > 1000 |
| CC(=O)c1c(CCN2CCC[C@H]2C)oc2ccc(-c3ccc(C#N)cc3)cc12 [Example 159, 4-(3-acetyl-2-{2-[(2R)-2-methyl-1-pyrrolidinyl]ethyl}-1-benzofuran-5-yl)benzonitrile] | – | 14 |
| C[C@@H]1CCCN1CCc1cc2cc(-c3ccc(C(=O)C4CC4)cc3)ccc2o1 [Example 160, cyclopropyl[4-(2-{2-[(2R)-2-methyl-1-pyrrolidinyl]ethyl}-1-benzofuran-5-yl)phenyl]methanone] | – | 7.6 |
| Cc1noc(C)c1-c1ccc2oc(CCN3CCC[C@H]3C)cc2c1 [Example 161, 3,5-dimethyl-4-(2-{2-[(2R)-2-methyl-1-pyrrolidinyl]ethyl}-1-benzofuran-5-yl)isoxazole] | – | 1.6 |
| N#Cc1ccc(-c2ccc3oc(CCN)cc3c2)cc1 [Example 162, 4-[2-(2-aminoethyl)-1-benzofuran-5-yl]benzonitrile] | 118 to 120 | 581 |
| (2R)-1-{2-[5-(4-methoxyphenyl)-1-benzofuran-2-yl]ethyl}-2-methylpyrrolidine [Example 121] | – | 51 |
| (2S)-1-(2-{5-[5-(4-morpholinylcarbonyl)-2-pyridinyl]-1-benzofuran-2-yl}ethyl)-2-pyrrolidinol [Example 62] | – | 112 |

Further lines, results first:

| melting point [°C] | Ki [1] [nM] | Molecule |
| --- | --- | --- |
| 147 | – | CC[C@@H]1CCCN1CCc1cc2cc(-c3ccc(C#N)cc3)ccc2o1 (as salt: tartrate) [Example 163, 4-(2-{2-[(2R)-2-ethyl-1-pyrrolidinyl]ethyl}-1-benzofuran-5-yl)benzonitrile] |
| 156.3 | – | N#Cc1ccc(-c2ccc3oc(CCN4CCC[C@H]4CF)cc3c2)cc1 (as salt: tartrate) [Example 164, 4-(2-{2-[(2S)-2-(fluoromethyl)-1-pyrrolidinyl]ethyl}-1-benzofuran-5-yl)benzonitrile] |
| – | 3.7 | CC[C@@H]1CCCN1CCc1cc2cc(-c3ccc(C#N)cc3)ccc2o1 [Example 163, 4-(2-{2-[(2R)-2-ethyl-1-pyrrolidinyl]ethyl}-1-benzofuran-5-yl)benzonitrile] |
| – | 24 | N#Cc1ccc(-c2ccc3oc(CCN4CCC[C@H]4CF)cc3c2)cc1 [Example 164, 4-(2-{2-[(2S)-2-(fluoromethyl)-1-pyrrolidinyl]ethyl}-1-benzofuran-5-yl)benzonitrile] |
| – | 16.8 | C[C@@H]1CCCN1CCc1cc2cc(-c3ccc(C#N)cc3)ccc2s1 [Example 165, 4-(2-{2-[(2R)-2-methyl-1-pyrrolidinyl]ethyl}-1-benzothien-5-yl)benzonitrile] |
